Assay results published in patent US7186703B2, “Derivatives of branched-chain lipophilic molecules and uses thereof” (D-Pharm Ltd., priority 2000, dated 2007).
Values joined by “and” are separate entries in the source; they are usually repeats but may differ in a detail not shown here. Equal entries are not always repeated. Where two headings read alike, the source gives them in different places.

Experiments:
Primary fibroblasts = assay: MTT cytotoxicity, normal primary fibroblasts; type: cell-based, human; conditions: three days, read-out: EC50 (50% reduction in cell viability)
Description: (§1) The cytotoxic activity of various phospho-derivatives of branched-chain fatty acids (DP-BFAs) was assayed in vitro in cell cultures that include normal and malignant cell types. The following cell systems were used: • Primary fibroblasts (human) • Normal bone marrow (BM) cells (mouse) • Primary bronchial epithelial cells (human, from Clonetics, cat. no. CC-2541) • Caco-2—colon cancer cell line (human, ATTC, HTB-37) • C6 glioma cell line (rat, ATCC, CRL-2199) • Neuro2a—neuroblastoma cell line (mouse, ATCC, CCL-131) • SKBR-3—breast cancer cell line (human, ATTC, HTB-30) • HL60—myeloid leukemia cell line (human, ATCC, CCL-240) • U937—myeloid leukemia cell line (human)
(§2) Cells were seeded in a microtiter plate in MEM containing 2 mM L-glutamine, 100 units/ml penicillin, 100 ug/ml streptomycin and 10% FCS at 37° C. The cultured cells were incubated, during their linear growth phase in the absence (control group) or presence of various DP-BFAs as indicated. The final concentrations of the tested DP-BFAs ranged from 1.5 to 200 microMolars. At the end of the incubation period, which was five days for the bone marrow cells and three days for all the other cell lines, the cytotoxic effect of the added P-BFA on the cells was estimated by using the colorimetric MTT assay. The MTT assay (Mosmann (1983) J. Immunol Methods 65: 55–63) measures mitochondrial reductase activity and serves for quantitative assessment of cellular viability. Drug concentration that causes 50% reduction in cell viability in comparison to the control group, is defined as EC50. The EC50 values of the tested DP-BFA compounds were calculated from dose response curves established for each of the different assayed cell lines.
(§3) Each EC50 value is an average of EC50 values derived from 1–5 independent experiments.

[1] = test system: Caco-2 colon cancer cell line; assay: MTT cytotoxicity, Caco-2; type: cell-based, human; conditions: Caco-2, three days, read-out: EC50 (50% reduction in cell viability)
Description: as §1, §2, §3

C6 gliosarcoma tumor = assay: Anti-tumor activity in C6 glioma-bearing rats, tumor volume (Example 27); type: in vivo, rat; conditions: for Tumor volume (mm^3) ± SE: control 8.1 ± 2.22; for anti-tumor effect on glioma growth (in words): rat, in vivo
Source text: The anti-tumor effects of various P-BFAs were studied in the in vivo model system described above in Example 17. Tested P-BFAs were intra-arterially administered at the concentrations previously determined as being effective in permeabilization of the BBB and BTB for Evans blue and Fluorescein extravasation. The experimental procedure for tumor inoculation, as described in Example 23, was followed.
On Day 3–4 following inoculation of the C6 gliosarcoma cells, rat were cannulated through external carotid artery and the tested P-BFAs were infused over 30 seconds, as described in Example 17, except that in this experiment no markers were administered. The treated rats were maintained until Day 7–9, and then sacrificed. Coronal sections were obtained, stained by eosin-hematoxylin, and reviewed histologically to determine tumor volume. Animals treated with vehicle only serve as control. Standard error and Student's test for statistical significance were used.

[2] = test system: Primary bronchial epithelial cells; assay: MTT cytotoxicity, normal primary epithelial cells; type: cell-based, human; conditions: Normal primary epithel, three days, read-out: EC50 (50% reduction in cell viability)
Description: as §1, §2, §3

[3] = test system: U937 myeloid leukemia cell line; assay: MTT cytotoxicity, U937; type: cell-based, human; conditions: U937, three days, read-out: EC50 (50% reduction in cell viability)
Description: as §1, §2, §3

[4] = test system: Neuro2a neuroblastoma cell line; assay: MTT cytotoxicity, Neuro2a; type: cell-based, mouse; conditions: three days, read-out: EC50 (50% reduction in cell viability)
Description: as §1, §2, §3

[5] = test system: blood tumor barrier (BTB) of C6 glioma; assay: BTB opening in C6 glioma-bearing rats, Evans blue accumulation in tumor; type: in vivo, Sprague Dawley rats; conditions: for EC50: C6 glioma-bearing rats; for BTB EB μg/g Tumor: concentrations around EC50 (Mannitol 25%), unilateral 30 s infusion; for Specificity Tumor/Non-tumor (T/NT): ratio of EB accumulated in tumor and non-tumor brain
Description: (§4) In order to study the ability of DP-BFA compounds to modulate blood tumor barrier (BTB), a model system of C6 glioma-bearing rats, was employed.
(§5) Sprague Dawley (SD) rats were inoculated with C6 gliosarcoma cells following the procedure described by Bartus et al. (Exp Neurol (1996); 142:14–28). A small burr-hole was made in the frontal scalp bone of the rat fixed in a stereotaxis apparatus. Using a Hamilton syringe, 10 μl or 5 μl of media, containing 2.5×10^5 C6 gliosarcoma cells were inoculated into the frontal cortex. Coordinates were 1 mm posterior of bregma, 2.5 mm—lateral, and 3 mm—depth. The needle remained in the place for 5 min. After removal of the needle, fascia and scalp were sutured. The rats were checked 6–8 days after inoculation, when tumors of sufficient size (20–60 mg) had developed. The tumor was weighed after F—Na visualization and dissection. Parts of the rats' brains were subject to histological examinations and monitored for Evans Blue and Fluorescein uptake into ipsilateral tumour tissue, peritumoural tissue and contralateral tissue.
(§6) The bilateral tumor model system of C6 glioma-bearing rats described in Example 23 above was employed for screening of various derivatives of DP-BFA for their ability to permeabilize the blood brain barrier (BBB) in comparison to their effect on the blood tumor barrier (BTB). The experimental procedure described in Example 23 was followed except that the tumor-bearing rats were further treated with DP-BFA. The tested compounds, at concentrations around their EC50 values, were unilaterally infused into the external carotis artery over 30 seconds as described in Example 17. Animals treated with vehicle only serve as a control group. Permeabilization effect was quantitated by measuring accumulation of albumin bound Evans blue dye in tumor (T) versus non-tumor (NT) tissues.
(§7) Specificity index is defined as the ratio between the levels of EB accumulated in tumor and those accumulated in non-tumor brain tissues (T/NT).

[6] = Octanol/saline solubility and partition coefficient, shake-flask technique; conditions: for logD / LogPc (octanol-saline partition coefficient): octanol/physiological saline; for LogPc (octanol-saline partition coefficient) / Water mg/ml (solubility in aqueous solution): sodium salts; for Water mg/ml (solubility in aqueous solution): physiological saline as aqueous solution; for Octanol mg/ml (solubility in octanol): sodium salts of the branched fatty acids and their PO4 derivatives
Description: The lipophilicity values of various derivatives of branched fatty acids were estimated by comparing the solubility of these compounds in organic versus aqueous solutions. Octanol and physiological saline were used, respectively, as the organic and aqueous solutions. The partition coefficient (Pc) value, i.e. the octanol/saline distribution was measured by the shake-flask technique.

[7] = test system: blood brain barrier (BBB); assay: BBB opening in C6 glioma-bearing rats, Evans blue accumulation in non-tumor brain; type: in vivo, Sprague Dawley rats; conditions: concentrations around EC50 (Mannitol 25%), unilateral 30 s infusion
Description: as §4, §5, §6, §7

[8] = test system: HL60 myeloid leukemia cell line; assay: MTT cytotoxicity, HL60; type: cell-based, human; conditions: HL60, three days, read-out: EC50 (50% reduction in cell viability)
Description: as §1, §2, §3

[9] = type: in vivo; conditions: rats, sodium salt; for LC (minimal concentration that caused death): i.a., viability monitored 24 hours
Description: DP-BFA molecules were evaluated for safety and toxicity. Increasing doses of the tested compounds were administered intra-arterially (i.a.) into rats following the protocol described above in Example 17. Animal viability was monitored for 24 hours to evaluate lethal concentrations (LC). LC is defined as the minimal concentration that caused death.
Safety index is defined as the ratio between the lethal dose (LC) and the minimal effective concentration (MEC), wherein MEC corresponds to a calculated concentration of the tested compound that elicits accumulation of three times the amount of Evans blue accumulated in control animals treated with vehicle only, i.e. total accumulation of 3 μg EB. The higher the LC/MEC ratio is, the higher the safety index.

[10] = octanol, organic solvent or mixture
[11] = physiological saline, saline or isotonic
[12] = Homo sapiens, Primary bronchial epithelial cell, 72 h

Compound	EC50 [1]	EC50 [3]	EC50 [4]	EC50 ([5]; Rattus norvegicus)	BTB EB μg/g Tumor [5]	Specificity Tumor/Non-tumor (T/NT) [5]	solubility [6, 10]	logD [6]	solubility [6, 11]	EC50 (Primary fibroblasts; Homo sapiens, Fibroblast, 72 h)	BBB EB μg/g Non-tumor brain [7]	EC50 ([1]; Homo sapiens, 72 h)	EC50 ([8]; Homo sapiens, HL-60, 72 h)	LC (minimal concentration that caused death) [9]	Safety LC/MEC [9]	EC50 [2, 12]	EC50 ([3]; Homo sapiens, U-937, 72 h)	EC50 [5]	Water mg/ml (solubility in aqueous solution) [6]	Octanol mg/ml (solubility in octanol) [6]	further results
CCCCCCCCCCCCC(CCC)C(=O)OCCOCCOP(=O)([O-])[O-].[Na+].[Na+] (centres unmarked) [3,12-DEG-PO4Na2, 2-[2′-(2″-Propyltetradecanoyloxy)-ethoxy]ethyl Disodium Phosphate]	40 µM	25 µM	58 µM	–	–	–	–	–	–	–	–	–	–	–	–	–	–	–	–	–	EC50 (Primary fibroblasts): 65 µM; Tumor volume (mm^3) ± SE (C6 gliosarcoma tumor; P-BFA 30 μM i.a.): 1.6 ± 0.4 mm^3; EC50 [2]: > 200 µM
CCCCCCCCCCCCC(CCC)C(=O)OCCOCCOP(=O)([O-])OCC[N+](C)(C)C (centres unmarked) [3,12-DEG-PC, 2-(2′-Propyltetradecanoyloxy)ethoxyethylphosphocholine]	–	–	–	60 µM	11 µg/g	2	> 50000 µg/mL	0.73	> 10000 µg/mL	170 µM	5 µg/g	113 µM	11 µM	300 ± 60 µM	20	90 µM	6 µM	–	–	–	Tumor volume (mm^3) ± SE (C6 gliosarcoma tumor; P-BFA 60 μM i.a.): 3.9 ± 1.0 mm^3; EC50 ([4]; Mus musculus, N2a, 72 h): 134 µM
CCCCCCCCCCCCC(CCC)C(=O)OCCOP(=O)([O-])OCC[N+](C)(C)C (centres unmarked) [3,12-MEG-PC, 2-(2′-Propyltetradecanoyloxy)ethylphosphocholine]	–	–	–	20 µM	12 µg/g	2	> 10000 µg/mL	1.22	> 10000 µg/mL	160 µM	6 µg/g	75 µM	20 µM	15 ± 2 µM	1.5	94 µM	9 µM	–	–	–	Tumor volume (mm^3) ± SE (C6 gliosarcoma tumor; P-BFA 10 μM i.a.): 2.88 ± 0.6 mm^3; anti-tumor effect on glioma growth (in words) (C6 gliosarcoma tumor): significant anti-tumor activity; EC50 ([4]; Mus musculus, N2a, 72 h): 70 µM
2-(4′-Hexadecanoyloxy)ethoxyethyl phosphate [3,12-DEG-PO4]	–	–	–	–	34 ± 8 µg/g	22 and 22 ± 5	–	–	–	–	2.0 ± 0.2 µg/g	–	–	30 ± 5 µM	–	–	–	7 ± 2 µM	8 mg/mL	>5 mg/mL	LogPc (octanol-saline partition coefficient) [6]: 1.31; anti-tumor effect on glioma growth (in words) (C6 gliosarcoma tumor): most pronounced anti-tumor effect
CCCCCCCCCCCCC(CCC)C(=O)[O-].[Na+] (centres unmarked) [3,12-Na, reference compound]	100 µM	68 µM	76 µM	–	44 ± 8 µg/g	1.1 ± 0.3	–	–	–	–	43 ± 9 µg/g	–	–	40 ± 10 µM	6.1	–	–	22 ± 4 µM	>10 mg/mL	>20 mg/mL	LogPc (octanol-saline partition coefficient) [6]: 0.99
CCCCCCCCCCCCC(CCC)OP(=O)([O-])OCC[N+](C)(C)C (centres unmarked) [3,12-PC, 4-Hexadecanyl phosphocholine]	150 µM	–	–	–	17 ± 2 µg/g	1.8 ± 0.5	–	–	–	–	10 ± 2 µg/g	–	–	80 ± 16 µM	3.5	–	–	52 ± 7 µM	>10 mg/mL	>10 mg/mL	EC50 [8]: 47 µM; Tumor volume (mm^3) ± SE (C6 gliosarcoma tumor; P-BFA 50 μM i.a.): 3.8 ± 0.8 mm^3
